Legend:
[1] = test system: adenosine uptake into HeLa cells; assay: [3H]Adenosine uptake assay; type: cell-based; conditions: Homo sapiens; accumulation of [3H]adenosine into HeLa cells; concentration range 10 μM to 0.032 nM; read-out: ADU inhibition IC50
Description: Compounds are also screened in an adenosine uptake functional cellular assay using the protocol described below:
Adenosine uptake activity was determined by monitoring the accumulation of tritiated adenosine into HeLa cells (ATCC catalog #CCL-2) using a PMT-based radiometric detection instrument. In this assay, the potency (IC50) of each compound was determined from a ten point (1:3 serial dilution; final compound concentration range in assay from 10 μM to 0.032 nM) titration curve using the following outlined procedure. To each well of a 96-well CytoStar-T scintillating microplate (Perkin Elmer Catalog #RPNQ0163), 25 000 HeLa cells in 100 μL of growth medium comprising: Minimum Essential Media (Life Technologies Catalog #11095-080)+10% (v/v) foetal bovine serum (FBS; Sigma Aldrich Catalog #F2442) was added. These cells were incubated overnight at 37° C. in a humidified atmosphere with 5% (v/v) CO2. After this time the growth medium was removed and replaced with 40 μL assay medium comprising: Hanks balanced salts solution (HBSS; Thermo Fisher Catalog # SH30268.01)+5% (v/v) FBS. Compound stock solutions in DMSO were diluted in assay medium to 2.5× final compound concentration maintaining a constant DMSO concentration of 0.25% (v/v). 40 μL of compound in assay medium was dispensed into individual wells of the Cytostar-T plates and the plates were incubated for 30 minutes under ambient laboratory conditions. Following this incubation, 20 μL of 500 nM [^3H] adenosine (American Radiolabeled Chemicals Inc. Catalog #ART0287) in assay medium was added and incubated for a further 60 minutes under ambient laboratory conditions. The amount of radiolabel accumulation was then determined using a Perkin Elmer Topcount NXT microplate reader. In brief, HeLa cells adhere to the bottom of the Cytostar-T plate, uptake of [^3H]adenosine into these cells brings the radiolabel into sufficient proximity to excite the scintillant in the base of the plates. These events are captured by single PMT, time-resolved coincidence counting. IC50 values were determined by 4 parameter robust fit of counts per second values vs. (Log10)) compound concentrations.

[2] = target: T1, BTK enzyme (recombinant full-length BTK, hBTK) (Homo sapiens, UniProt Q06187); assay: Btk enzyme activity assay (LANCE TR-FRET); type: biochemical; conditions: 50 pM hBTK, 25 μM ATP, 60 minute compound and enzyme incubation, concentration range 1 μM to 0.017 nM, read-out: BTK binding IC50
T1 construct: recombinant protein from baculovirus-transfected S 19 cells: full-length BTK, 6 HIS-tag cleaved; 6 HIS-tag (cleaved yes); made in house
T1 sequence (Q06187 whole entry): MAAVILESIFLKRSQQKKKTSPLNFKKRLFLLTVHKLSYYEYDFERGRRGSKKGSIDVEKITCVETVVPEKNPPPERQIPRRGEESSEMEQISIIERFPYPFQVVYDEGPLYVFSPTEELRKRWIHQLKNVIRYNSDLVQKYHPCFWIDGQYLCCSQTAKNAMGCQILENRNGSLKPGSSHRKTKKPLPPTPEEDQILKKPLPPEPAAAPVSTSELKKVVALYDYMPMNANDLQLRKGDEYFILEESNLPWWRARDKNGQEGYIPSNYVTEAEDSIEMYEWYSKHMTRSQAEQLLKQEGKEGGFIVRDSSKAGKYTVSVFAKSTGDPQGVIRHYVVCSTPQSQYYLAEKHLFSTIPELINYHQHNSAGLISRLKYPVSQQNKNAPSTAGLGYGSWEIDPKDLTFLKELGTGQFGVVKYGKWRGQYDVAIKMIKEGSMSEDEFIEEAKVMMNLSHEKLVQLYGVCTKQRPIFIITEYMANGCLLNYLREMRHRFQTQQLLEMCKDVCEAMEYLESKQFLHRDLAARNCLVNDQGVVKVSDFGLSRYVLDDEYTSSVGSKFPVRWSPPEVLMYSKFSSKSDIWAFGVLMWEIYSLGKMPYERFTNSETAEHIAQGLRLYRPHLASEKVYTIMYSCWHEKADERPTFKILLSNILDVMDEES

| SMILES | IC50 [1] [nM] | IC50 [2] [nM] |
| --- | --- | --- |
| CCc1cnc(N)c2c(-c3ccc(C(=O)Nc4cc(C(F)(F)F)ccn4)cc3OC)nc([C@H]3CN(C(=O)C4CC4)[C@@H](C)CO3)n12 [Example 9, 4-{8-amino-3-[(2R,5S)-4-(cyclopropylcarbonyl)-5-methylmorpholin-2-yl]-5-ethylimidazo[1,5-a]pyrazin-1-yl}-3-methoxy-N-[4-(trifluoromethyl)pyridin-2-yl]benzamide] | 2680 | 3.76 |
| C[C@H]1CO[C@@H](c2nc(-c3ccc(C(=O)Nc4cc(C(F)(F)F)ccn4)cc3)c3c(N)ncc(Cl)n23)CN1C(=O)C1CC1 [Example 43, 4-{8-amino-5-chloro-3-[(2R,5S)-4-(cyclopropylcarbonyl)-5-methylmorpholin-2-yl]imidazo[1,5-a]pyrazin-1-yl}-N-[4-(trifluoromethyl)pyridin-2-yl]benzamide] | 562 | 0.784 |
| CCOc1cc(C(=O)Nc2cc(C(F)(F)F)ccn2)ccc1-c1nc([C@H]2CC[C@@H](C(F)(F)F)N(C(=O)C3CC3)C2)n2ccnc(N)c12 [Example 3, 4-{8-amino-3-[(3S,6S)-1-(cyclopropylcarbonyl)-6-(trifluoromethyl)piperidin-3-yl]imidazo[1,5-a]pyrazin-1-yl}-3-ethoxy-N-[4-(trifluoromethyl)pyridin-2-yl]benzamide] | 859 | 1000 |
| C[C@H]1CO[C@@H](c2nc(-c3ccc(C(=O)Nc4cc(C(F)(F)F)ccn4)cc3F)c3c(N)nccn23)CN1Cc1cnn(C)c1 [Example 74, 4-(8-amino-3-{(2R,5S)-5-methyl-4-[(1-methyl-1H-pyrazol-4-yl)methyl]morpholin-2-yl}imidazo[1,5-a]pyrazin-1-yl)-3-fluoro-N-[4-(trifluoromethyl)pyridin-2-yl]benzamide] | 224 | 0.47 |
| CO[C@H](C)C(=O)N1C[C@H](c2nc(-c3ccc(C(=O)Nc4cc(C(F)(F)F)ccn4)cc3F)c3c(N)nccn23)OC[C@@H]1C [Example 79, 4-(8-amino-3-{(2R,5S)-4-[(2R)-2-methoxypropanoyl]-5-methylmorpholin-2-yl}imidazo[1,5-a]pyrazin-1-yl)-3-fluoro-N-[4-(trifluoromethyl)pyridin-2-yl]benzamide] | 288 | 0.423 |
| C[C@H]1CO[C@@H](c2nc(-c3ccc(C(=O)Nc4cc(C5CC5)ccn4)cc3F)c3c(N)ncc(Cl)n23)CN1C1CCOCC1 [Example 44, 4-{8-amino-5-chloro-3-[(2R,5S)-5-methyl-4-(tetrahydro-2H-pyran-4-yl)morpholin-2-yl]imidazo[1,5-a]pyrazin-1-yl}-N-(4-cyclopropylpyridin-2-yl)-3-fluorobenzamide] | 362 | 0.358 |
| C[C@@H]1CO[C@@H](c2nc(-c3ccc(C(=O)Nc4cc(C(F)(F)F)ccn4)cc3F)c3c(N)nccn23)CN1C(=O)C1(C)CC1 [Example 69, 4-(8-amino-3-{(2R,5R)-5-methyl-4-[(1-methylcyclopropyl)carbonyl]morpholin-2-yl}imidazo[1,5-a]pyrazin-1-yl)-3-fluoro-N-[4-(trifluoromethyl)pyridin-2-yl]benzamide] | 139 | 10.9 |
| CCOc1cc(C(=O)Nc2cc(C(F)(F)F)ccn2)ccc1-c1nc([C@H]2CN(C(=O)C3(C#N)CC3)[C@@H](C)CO2)n2c(Cl)cnc(N)c12 [Example 103, 4-(8-amino-5-chloro-3-{(2R,5S)-4-[(1-cyanocyclopropyl)carbonyl]-5-methylmorpholin-2-yl}imidazo[1,5-a]pyrazin-1-yl)-3-ethoxy-N-[4-(trifluoromethyl)pyridin-2-yl]benzamide] | 5580 | 1.92 |
| C[C@H](O)C(=O)N1C[C@H](c2nc(-c3ccc(C(=O)Nc4cc(C5CC5)ccn4)cc3)c3c(N)nccn23)CC[C@@H]1C [Example 91, 4-(8-amino-3-{(3R,6S)-1-[(2S)-2-hydroxypropanoyl]-6-methylpiperidin-3-yl}imidazo[1,5-a]pyrazin-1-yl)-N-(4-cyclopropylpyridin-2-yl)benzamide] | 40.1 | 0.295 |
| COc1cc(C(=O)Nc2cc(C(F)(F)F)ccn2)ccc1-c1nc([C@H]2CN(C(=O)[C@H](C)OC)[C@@H](C)CO2)n2c(Cl)cnc(N)c12 [Example 13, 4-(8-amino-5-chloro-3-{(2R,5S)-4-[(2S)-2-methoxypropanoyl]-5-methylmorpholin-2-yl}imidazo[1,5-a]pyrazin-1-yl)-3-methoxy-N-[4-(trifluoromethyl)pyridin-2-yl]benzamide] | 1710 | 3.89 |
| C[C@H]1CO[C@@H](c2nc(-c3ccc(C(=O)Nc4cc(C(F)(F)F)ccn4)cc3F)c3c(N)nccn23)CN1C(=O)C1(C)CC1 [Example 85, 4-(8-amino-3-{(2R,5S)-5-methyl-4-[(1-methylcyclopropyl)carbonyl]morpholin-2-yl}imidazo[1,5-a]pyrazin-1-yl)-3-fluoro-N-[4-(trifluoromethyl)pyridin-2-yl]benzamide] | 189 | 0.548 |
| C[C@H](O)C(=O)N1C[C@H](c2nc(-c3ccc(C(=O)Nc4cc(C(F)(F)F)ccn4)cc3F)c3c(N)ncc(Cl)n23)OC[C@@H]1C [Example 42, 4-(8-amino-5-chloro-3-{(2R,5S)-4-[(2S)-2-hydroxypropanoyl]-5-methylmorpholin-2-yl}imidazo[1,5-a]pyrazin-1-yl)-3-fluoro-N-[4-(trifluoromethyl)pyridin-2-yl]benzamide] | 364 | 0.4 |
| CCOc1cc(C(=O)Nc2cc(C(F)(F)F)n(C)n2)ccc1-c1nc([C@H]2CN(C3CCOCC3)[C@@H](C)CO2)n2c(Cl)cnc(N)c12 [Example 40, 4-{8-amino-5-chloro-3-[(2R,5S)-5-methyl-4-(tetrahydro-2H-pyran-4-yl)morpholin-2-yl]imidazo[1,5-a]pyrazin-1-yl}-3-ethoxy-N-[1-methyl-5-(trifluoromethyl)-1H-pyrazol-3-yl]benzamide] | 4620 | 5.87 |
| CNc1c(N[C@H]2C[C@H](c3nc(-c4ccc(C(=O)Nc5cc(C(F)(F)F)ccn5)cc4)c4c(N)nccn43)C2)c(=O)c1=O [Example 113, 4-[8-amino-3-(trans-3-{[2-(methylamino)-3,4-dioxocyclobut-1-en-1-yl]amino}cyclobutyl)imidazo[1,5-a]pyrazin-1-yl]-N-[4-(trifluoromethyl)pyridin-2-yl]benzamide] | 2940 | 0.166 |
| COc1cc(C(=O)Nc2cc(C(F)(F)F)ccn2)ccc1-c1nc([C@H]2CN(Cc3cnn(C)c3)[C@@H](C)CO2)n2ccnc(N)c12 [Example 54, 4-(8-amino-3-{(2R,5S)-5-methyl-4-[(1-methyl-1H-pyrazol-4-yl)methyl]morpholin-2-yl}imidazo[1,5-a]pyrazin-1-yl)-3-methoxy-N-[4-(trifluoromethyl)pyridin-2-yl]benzamide] | 1650 | 2.28 |
| COc1cc(C(=O)Nc2cc(C(F)(F)F)ccn2)ccc1-c1nc([C@H]2CN(C(=O)C3(C)CC3)[C@@H](C)CO2)n2c(Cl)cnc(N)c12 [Example 18, 4-(8-amino-5-chloro-3-{(2R,5S)-5-methyl-4-[(1-methylcyclopropyl)carbonyl]morpholin-2-yl}imidazo[1,5-a]pyrazin-1-yl)-3-methoxy-N-[4-(trifluoromethyl)pyridin-2-yl]benzamide] | 3230 | 2.8 |
